Data on seven compounds can be found in PMC12339378 (Molecular Psychiatry, 2025).

Series [1] relates to HCN channel Ih currents in VTA DA neurons. It is filed as cell-based, mice.
Series [2] deals with VTA DA neurons. It is filed as cell-based, mice. To be noted: 750 µM local application for 3 min; cell-attached; average.
The conditions of series [3]: cited from earlier work.

Consider `COc1cc2c(cc1OC)CC(=O)N(CCCN(C)C[C@H]1Cc3cc(OC)c(OC)cc31)CC2` [Ivabradine], for which, in series [1], the “percent inhibition of Ih currents in VTA DA neurons” value (shortened to “percent inhibition of Ih currents”) is reported as “significant inhibition of the Ih current”. In addition, the “percent inhibition of firing rate in VTA DA neurons” value in series [2] amounted to 61.1%. In series [3], the “ability to cross the blood-brain barrier (BBB)” value was “limited abilities to cross the blood-brain barrier”.

Turning to `COc1ccc(CCN(C)CCCN2CCc3cc(OC)c(OC)cc3CC2=O)cc1OC` [Zatebradine], in series [1], the “percent inhibition of Ih currents” value was “significant inhibition of the Ih current”. The “percent inhibition of firing rate in VTA DA neurons” value in series [2] was 59.7%.

As to `COc1cc2c(cc1OC)CC(=O)N(C[C@H]1CCCN(CCOc3ccccc3)C1)CC2` [compound 3], the “percent inhibition of Ih currents” value in series [1] is reported as “less efficacious than Cilobradine”.

Take `COc1cc2c(cc1OC)CC(=O)N(C[C@H]1CCCN(CCOc3ccccc3F)C1)CC2` [compound 4]: in series [1], the “percent inhibition of Ih currents” value is “less efficacious than Cilobradine”.

Turning to `COc1ccc(CCN2CCO[C@H](CN3CCc4cc(OC)c(OC)cc4CC3=O)C2)cc1OC` [compound 6], in series [1], the “percent inhibition of Ih currents” value was “less efficacious than Cilobradine”.

On to `COc1ccc(C(F)(F)CN(C)CCCN2CCc3cc(OC)c(OC)cc3CC2=O)cc1OC` [compound 8], for which, in series [1], the “percent inhibition of Ih currents” value is recorded as “no efficacy”.

On to `COc1cc2c(cc1OC)CC(=O)N(C[C@H]1CCCN(C(=O)OC(C)(C)C)C1)CC2` [compound 11], for which the “percent inhibition of Ih currents” value in series [1] is listed as “less than half the efficacy of Cilobradine”.
